Data on 38 compounds can be found in ChEMBL document CHEMBL3507680, “University of Dundee, Gates Library screen for HepG2 cell viability”.

A short description of this series: Human HepG2 cell viability assay in 384 well format. The settings on record: HepG2 cells, read-out: Inhibition. More on the design: dose 125 nL, time 70.5 hour; concentration not given beside the values. In kind it is toxicity, cell-based.
Take `COc1cccc(S(=O)(=O)N2CCCc3c(OC)nn(C)c3C2)c1`: the cytotoxicity at 70.5 h is -5.16%.
Turning to `CN(C)c1cc2c(nn1)CCN(C(=O)c1cc3c(s1)CCC3)C2`, the cytotoxicity at 70.5 h was determined as 8.88%.
The result for `CCCc1cc(N2CCCC2Cn2cc(C)cn2)n2ncnc2n1` (stereo not drawn) reads -8.77%.
The result for `CCNC(=O)NC(=O)CN1CCCC1c1nc(C2CCCCC2)co1` (stereo not drawn) reads -7.64%.
The result for `CS(=O)(=O)N1C[C@@H](F)[C@@H](OCc2nc3ccccc3o2)C1` reads 14.3%.
Turning to `CNC(=O)CN(C)C(=O)c1cc(Cl)c(Cl)n1C`, the cytotoxicity at 70.5 h came out at 17.1%.
`CC1=C(C(=O)N2CCCC(Cn3cc(CO)nn3)C2)OCCO1` (stereo not drawn): the cytotoxicity at 70.5 h was -2.23%.
As for `O=C(Cn1c(=O)oc2ccccc21)NCC1(O)CCc2ccccc21` (stereo not drawn), the cytotoxicity at 70.5 h is -6.07%.
`CN1CCN(C(CNC(=O)c2ccc(Cl)cc2F)c2cccs2)CC1` (stereo not drawn): the cytotoxicity at 70.5 h amounted to 42.7%.
For the compound `NC(=O)CC1CCCCN1C(=O)c1cccc(C(F)(F)F)c1` (stereo not drawn), the cytotoxicity at 70.5 h was -0.919%.
Then `Cc1nc(C(=O)N2CCN(c3ncccn3)[C@@H]3CS(=O)(=O)C[C@@H]32)cs1`, with -7.79%; and `COc1ccc(CN2CCc3sccc3C2C)cc1CN1CCOCC1` (stereo not drawn), with -0.0983%; and `CS(=O)(=O)N1CCC2(COCc3cnc(-c4ccccc4)nc32)C1` (stereo not drawn), with -10.2%.
The result for `Cc1n[nH]c(C)c1C1COCCN1C(=O)Cc1ccccc1F` (stereo not drawn) reads -0.503%; that for `CCc1ncc(C(=O)N2CCCN(C3CCCCC3)CC2)cn1`, 10.7%; that for `Cc1nn(-c2ccccc2)c(C)c1CNC1CCc2ncnn2C1` (stereo not drawn), 1.33%.
The result for `Cc1cc(C(=O)N2C[C@@H]3[C@@H](CN(C)CCCn4cccn4)[C@@H]3C2)c(C)o1` reads -0.851%; that for `O=C(Cc1ccc(F)cc1F)NCC(=O)Nc1ccccn1`, -5.81%; that for `Cc1cccc(-n2nc(CC(C)C)nc2CCC(=O)N(C)C)c1`, 0.846%.
As for `CC(C)[C@H]1CN(c2ccncc2)C[C@@H]1NC(=O)C1(C#N)CCOCC1`, the cytotoxicity at 70.5 h was -8.3%.
As for `COCCC1(C(=O)O)CCCN(C(=O)c2cnc3c(c2)CCCC3)C1` (stereo not drawn), the cytotoxicity at 70.5 h is -14.8%.
For `O=C(c1ccc(F)cc1)N1C[C@@H]2CN(c3ncccn3)C[C@@H]2C1`, the cytotoxicity at 70.5 h is -6.82%.
`O=C(NCCN1C(=O)c2ccccc2C1=O)c1scnc1Cl`: the cytotoxicity at 70.5 h was -7.67%.
The result for `c1cncc(CN2CCO[C@@H]3CN(Cc4ccoc4)CC[C@@H]3C2)c1` reads -7.13%; that for `NCCc1n[nH]c(=O)n1-c1cccc2ccccc12`, -4.93%; that for `COCCNC(C)c1ccc(-c2cccnc2)cc1` (stereo not drawn), 0.821%.
Then `CN(CCC#N)C(=O)CCOc1cccc(F)c1`, with 13%; and `C1CCC(CN2Cc3nnn(CC4CC4)c3C(COCC3CC3)C2)C1` (stereo not drawn), with -8.05%; and `O=C(c1cccnc1)N1CCCC(c2ccnc3nccn23)C1` (stereo not drawn), with 7.06%.
The result for `CC(C)n1c2ccccc2c2c1cc(C(=O)O)n2C(=O)N(C)C` reads -2.89%; that for `COCCN1CCCC(c2nc3c([nH]2)CC(C)(C)CNC3=O)C1` (stereo not drawn), -3%; that for `Cc1ccc(C(=O)N2C[C@@H]3CN(S(C)(=O)=O)CCO[C@@H]3C2)o1`, -0.0736%.
Take `CC(C)CN1CC[C@@H]2[C@H](CC1)N(S(C)(=O)=O)CCS2(=O)=O`: the cytotoxicity at 70.5 h was -11.1%.
In the case of `O=C(Nc1ccc2c(c1)OCO2)c1ccc(N2CCCC2)nn1`, the cytotoxicity at 70.5 h was 20.4%.
Take `CC(C)Cc1cc(C(=O)N2CCC(Oc3cccnc3)CC2)n(C)n1`: the cytotoxicity at 70.5 h was -8.18%.
Then `CS(=O)(=O)c1snnc1C1CCN(Cc2ccc3nccnc3c2)CC1`, with -5.73%.
`COc1ccc(C)cc1C(=O)N1CCCC(n2nc(C)nc2C)C1` (stereo not drawn): the cytotoxicity at 70.5 h was -8.26%.
The result for `COc1ccccc1CNC(=O)CNc1ccccc1C(C)=O` reads -1.58%.
